Results from PMC3577359 (Biochemistry, 2013).
Values joined by “and” are separate entries in the source; they are usually repeats but may differ in a detail not shown here. Identical values can stand only once. Like-named read-outs stand apart in the source and are kept apart here.

Tests used:
AusA A2 domain = AusA A2 domain (Staphylococcus aureus, UniProt A0A0H3JX00); experiment: ATP–PPi exchange kinetic parameters of AusA, A2 domain; type: biochemical
holo–AusA = holo–AusA (Staphylococcus aureus, UniProt A0A0H3JX00); settings: for kcat/KM, fold lower than that of L-Tyr: fixed saturating L-Val, ATP, NADPH
AusA A1 domain = AusA A1 domain (Staphylococcus aureus, UniProt A0A0H3JX00); experiment: ATP–PPi exchange kinetic parameters of AusA, A1 domain; type: biochemical
AusA A1/A2 = AusA A1/A2 (Staphylococcus aureus, UniProt A0A0H3JX00); experiment: ATP–PPi exchange kinetic parameters of AusA, A1/A2 aggregate; type: biochemical
[1] = system: holo–AusA reductase domain; type: biochemical, Staphylococcus aureus; settings: for Aureusimine-A Formation kobs / NADPH Consumption kobs: ATP; for Aureusimine-A Formation kobs: LC-MS
A2–T2–R = A2–T2–R (Staphylococcus aureus, UniProt A0A0H3JX00); experiment: ATP–PPi exchange assay, inhibition of A2–T2–R tridomain; type: biochemical
A1–T1 = A1–T1 (Staphylococcus aureus, UniProt A0A0H3JX00); experiment: ATP–PPi exchange assay, inhibition of A1–T1 didomain; type: biochemical
AusA (A1–T1–C–A2–T2–R) = AusA (A1–T1–C–A2–T2–R) (Staphylococcus aureus, UniProt A0A0H3JX00); type: biochemical
calpain = settings: cited from earlier work
[2] = cited from earlier work
CC[C@H](C)[C@H](N)C(=O)O = experiment: ATP–PPi exchange kinetic parameters of AusA, A1 domain; type: biochemical, Staphylococcus aureus; settings: other: varied amino acid, non-varied ATP 3 mM; apparent; pH 8.0; 37.0 °C
CC(C)[C@H](N)C(=O)O = experiment: as above; type: biochemical, Staphylococcus aureus; settings: other: varied amino acid, non-varied ATP 3 mM; apparent; pH 8.0; 37.0 °C
CC(C)C[C@H](N)C(=O)O = experiment: ATP–PPi exchange kinetic parameters of AusA, A1/A2 aggregate; type: biochemical, Staphylococcus aureus; settings: other: non-varied ATP 3 mM; aggregate of A1 and A2; pH 8.0; 37.0 °C
[3] = system: Nc1ncnc2c1ncn2[C@@H]1O[C@H](COP(=O)(O)OP(=O)(O)OP(=O)(O)O)[C@@H](O)[C@H]1O; experiment: ATP–PPi exchange kinetic parameters of AusA, A2 domain; type: biochemical, Staphylococcus aureus; settings: other: varied ATP, non-varied L-Phe 30 mM; pH 8.0; 37.0 °C
[4] = system: N[C@@H](Cc1ccc(O)cc1)C(=O)O; experiment: as above; type: biochemical, Staphylococcus aureus; settings: other: varied amino acid, non-varied ATP 3 mM; apparent; pH 8.0; 37.0 °C
N[C@@H](Cc1ccccc1)C(=O)O = experiment: as above; type: biochemical, Staphylococcus aureus; settings: other: varied amino acid, non-varied ATP 3 mM; apparent; pH 8.0; 37.0 °C
[5] = system: Nc1ccc(C[C@H](N)C(=O)O)cc1; experiment: as above; type: biochemical, Staphylococcus aureus; settings: other: varied amino acid, non-varied ATP 3 mM; apparent; pH 8.0; 37.0 °C
[6] = system: Nc1ncnc2c1ncn2[C@@H]1O[C@H](COP(=O)(O)OP(=O)(O)OP(=O)(O)O)[C@@H](O)[C@H]1O; experiment: purified protein, by the assay type; settings: other: ATP varied, pH 8.0
[7] = substrates L-Val, NADPH (no L-Tyr)

## Nc1ccc(C[C@H](N)C(=O)O)cc1 [L-4Aph, L-4-aminophenylalanine]
AusA A2 domain
  decrease in kcat relative to L-Tyr: 30%
  increase in KM relative to L-Tyr: 31 fold
holo–AusA
  kcat/KM, fold lower than that of L-Tyr: 17 fold

## CC[C@H](C)[C@H](N)C(=O)O [L-Ile]
AusA A1 domain; in the presence of Phe-AMS
  exchange rate, fold lower than with L-Val: ~10 fold

## CC(C)C[C@H](N)C(=O)O [L-Leu]
AusA A1/A2
  kcat/KM, fold less than the best substrates: more than 200 fold
holo–AusA
  kcat/KM, fold lower than that of L-Tyr: 302 fold

## N[C@@H](Cc1ccccc1)C(=O)O [L-Phe]
holo–AusA
  kcat/KM, fold lower than that of L-Tyr: 2.8 fold

## CC(C)[C@H](N)C(=O)O [L-Val, L-Valine]
AusA A1 domain
  kcat/KM, fold greater than L-Ile: 49 fold

## NC(=O)C1=CN([C@@H]2O[C@H](COP(=O)(O)OP(=O)(O)OC[C@H]3O[C@@H](n4cnc5c(N)ncnc54)[C@H](O)[C@@H]3O)[C@@H](O)[C@H]2O)C=CC1 [NADH]
[1]; data not shown
  cofactor use by AusA: unable to use

## Nc1ncnc2c1ncn2[C@@H]1O[C@H](COS(=O)(=O)NC(=O)[C@@H](N)Cc2ccccc2)[C@@H](O)[C@H]1O [Phe-AMS, 5′-O-[N-(phenylalanyl)sulfamoyl]adenosine]
A2–T2–R
  Ki: < 4 nM
  selectivity factor (A2 over A1–T1): > 10^4
[1]; L-Tyr reaction, data not shown
  consumption of NADPH with the A2-specific inhibitor added: not observed
A1–T1
  Ki: > 100000 nM
A1–T1; up to 100 μM
  inhibition of A1–T1: little inhibition
AusA (A1–T1–C–A2–T2–R)
  Ki: 0.8 ± 0.5 nM
AusA (A1–T1–C–A2–T2–R); 100 μM Phe-AMS, with L-Phe, L-4Aph, L-Tyr and L-Met
  effect on amino acid-dependent ATP–PPi exchange activity: eliminates the enzymatic activity

## CC(C)[C@H](N)C(=O)NS(=O)(=O)OC[C@H]1O[C@@H](n2cnc3c(N)ncnc32)[C@H](O)[C@@H]1O [Val-AMS, 5′-O-[N-(valinyl)sulfamoyl]adenosine]
A2–T2–R
  Ki: 10000 nM
A1–T1
  Ki: 63 ± 5 nM
  selectivity factor Ki(A2-T2-R)/Ki(A1-T1): 158
AusA (A1–T1–C–A2–T2–R)
  Ki: 44 ± 7 nM
AusA (A1–T1–C–A2–T2–R); 100 μM Val-AMS, with L-Tyr, L-Phe, L-4Aph and L-Leu, off-target inhibition of A2
  activity reduction relative to the uninhibited control: more than 2 fold
AusA (A1–T1–C–A2–T2–R); 100 μM Val-AMS, with L-Val, L-Ile, L-Cle, L-Ala, L-Cys, L-Tle and L-Met
  effect on amino acid-dependent ATP–PPi exchange activity: eliminated

## CC(C)c1ncc(Cc2ccc(O)cc2)[nH]c1=O [compound 1, aureusimine-A]
[1]; substrates L-Tyr, NADPH (no L-Val)
  Aureusimine-A Formation kobs: 0 min⁻¹
[1]; [7]
  Aureusimine-A Formation kobs: 0 min⁻¹
[1]; substrates L-Val, L-Tyr, NADPH, listed as Aureusimine-A
  Aureusimine-A Formation kobs: 0.28 ± 0.01 min⁻¹
[1]; substrates L-Val, L-Tyr, NADPH, listed as aureusimine-A
  Aureusimine-A Formation kobs: 0.28 min⁻¹

## CC(C)c1ncc(Cc2ccccc2)[nH]c1=O [compound 2, aureusimine-B]
calpain
  calpain inhibition activity: ~ 1 μM
[2]
  antibacterial activity: no antibacterial activity was observed

## AusA A1 domain (Staphylococcus aureus subsp. aureus Mu50)
CC[C@H](C)[C@H](N)C(=O)O
  Km: 11.9 ± 0.9 mM
  kcat: 0.565 ± 0.0183 s⁻¹
  kcat/Km: 47 ± 4 M⁻¹ s⁻¹
CC(C)[C@H](N)C(=O)O
  Km: 3.3 ± 0.1 mM
  kcat: 7.683 ± 0.05 s⁻¹
  kcat/Km: 2330 ± 72 M⁻¹ s⁻¹

## AusA A1/A2 (Staphylococcus aureus subsp. aureus Mu50)
CC(C)C[C@H](N)C(=O)O
  Km: 24 ± 3 mM
  kcat: 0.248 ± 0.0167 s⁻¹
  kcat/Km: 10 M⁻¹ s⁻¹ and 10.3 M⁻¹ s⁻¹

## AusA A2 domain (Staphylococcus aureus subsp. aureus Mu50)
[3]
  Km: 3.0 ± 0.5 mM
  kcat: 1.05 ± 0.117 s⁻¹
  kcat/Km: 350 ± 70 M⁻¹ s⁻¹
[4]
  Km: 1.0 ± 0 mM
  kcat: 2.15 ± 0.0167 s⁻¹
  kcat/Km: 2150 ± 17 M⁻¹ s⁻¹
N[C@@H](Cc1ccccc1)C(=O)O
  Km: 2.1 ± 0.1 mM
  kcat: 0.675 ± 0.01 s⁻¹
  kcat/Km: 321 ± 16 M⁻¹ s⁻¹
[5]
  Km: 31 ± 1 mM
  kcat: 1.53 ± 0.0333 s⁻¹
  kcat/Km: 49 ± 2 M⁻¹ s⁻¹

## NADPH
[1]; [7]
  NADPH Consumption kobs: 0 min⁻¹
[1]; substrates L-Val, L-Tyr, NADPH, 80 nM holo–AusA, ambient temperature
  NADPH Consumption kobs: 2.01 min⁻¹ and 2.01 ± 0.05 min⁻¹
holo–AusA; at 0.1 mM NADPH, L-Val, L-Tyr, ATP non-varied
  kobs: 0.39 min⁻¹

## holo–AusA (Staphylococcus aureus subsp. aureus Mu50)
[6]; L-Leu as the non-varied amino acid
  Km: 9.7 mM
[6]; L-Tyr as the non-varied amino acid
  Km: 0.1 mM
